Series [1] can be described thus: WST-1 proliferation assay, A549. Format: cell-based. The settings on record: human, A549 cells (lung carcinoma), vs 0.1% DMSO control = 100%, mean ± standard deviation. How it is done:
(§1) A thorough analysis of antiproliferative activity was performed across various cell culture types representing different histotypes: leukemia (Jurkat, MOLT-4), lung adenocarcinoma (A549), colorectal adenocarcinoma (HT-29), pancreatic carcinoma (PANC-1), breast adenocarcinoma (MCF-7), osteosarcoma (SAOS-2), and one non-cancerous cell line (fetal lung fibroblasts MRC-5). The cell lines were exposed to the newly synthesized compounds at a concentration of 100 μM for 48 h in a single-dose treatment. Changes in cell proliferation compared to the vehicle 0.1% dimethyl sulfoxide (DMSO) control were determined using the WST-1 assay, which is based on mitochondrial dehydrogenase metabolic activities. […] The overall cytotoxic activity of each compound was expressed as growth percent (GP) – the mean of the proliferation of all cell lines treated with the same compound.
(§2) Selected human tumor and non-tumor cell lines Jurkat (acute T-cell leukemia), MOLT-4 (acute lymphoblastic leukemia), A549 (lung carcinoma), HT-29 (colorectal adenocarcinoma), PANC-1 (pancreas epithelioid carcinoma), MCF-7 (breast adenocarcinoma), SAOS-2 (osteosarcoma) and MRC-5 (normal lung fibroblasts) were purchased from either American Type Culture Collection (ATCC; VA, USA) or Sigma-Aldrich (St. Louis, MO, USA) and cultured according to the provider's culture method guidelines. All cell lines were maintained at 37 °C in a humidified 5% carbon dioxide and 95% air incubator. Cells in the maximum range of either 10 passages for the adherent cell lines (A549, HT-29, PANC-1, MCF-7, SAOS-2, and MRC-5), or 20 passages for suspension cell lines (Jurkat, MOLT-4,) and in an exponential growth phase were used for this study. Screening of the antiproliferative effect and growth percent calculation were conducted as follows: each cell line was seeded at previously established optimal density (1–50 × 10^3 cells per well) in a 96-well plate (TPP, Trasadingen, Switzerland) and cells were allowed to settle overnight. Cells were treated for 48 h with compounds at a final concentration of 100 μM. At the end of the cultivation period, the WST-1 proliferation assay (Roche, Basel, Switzerland) was performed according to the manufacturer's protocol. The absorbance was measured at 440 nm using a Tecan Spark multimode microplate reader (Tecan, Mannedorf, Switzerland). Each value is the mean of three independent experiments and represents the percentage of proliferation (100% cell proliferation for 0.1% DMSO mock-treated control cells). The GP value was calculated for each compound tested. GP represents the mean of the percentage proliferation decrease of all cell lines treated with the same compound.
On the technique in general: Formazan colour is commonly taken as a measure of viable cells.

The nature of series [2]: WST-1 proliferation assay, MRC-5. Format: cell-based. The settings on record: human, MRC-5 cells (normal lung fibroblasts), vs 0.1% DMSO control = 100%, mean ± standard deviation. As for the experimental part:
as §1, §2

Series [3] in a line: WST-1 proliferation assay, MCF-7. Format: cell-based. The following applies: human, MCF-7 cells (breast adenocarcinoma), vs 0.1% DMSO control = 100%, mean ± standard deviation. As for the experimental part: as §1, §2
A short description of series [4]: WST-1 proliferation assay, SAOS-2. Format: cell-based. The following applies: human, SAOS-2 cells (osteosarcoma), vs 0.1% DMSO control = 100%, mean ± standard deviation. As for the experimental part:
as §1, §2

The test system of series [5] is panel of human cell lines. Briefly: Overall cytotoxicity screening across the cell line panel (growth percent). The settings on record: 100 μM, 48 h, single-dose treatment, WST-1. Format: cell-based. How it is done: as §1
Selected human tumor and non-tumor cell lines Jurkat (acute T-cell leukemia), MOLT-4 (acute lymphoblastic leukemia), A549 (lung carcinoma), HT-29 (colorectal adenocarcinoma), PANC-1 (pancreas epithelioid carcinoma), MCF-7 (breast adenocarcinoma), SAOS-2 (osteosarcoma) and MRC-5 (normal lung fibroblasts) were purchased from either American Type Culture Collection (ATCC; VA, USA) or Sigma-Aldrich (St. Louis, MO, USA) and cultured according to the provider's culture method guidelines. […]

Series [6] in a line: WST-1 proliferation assay, PANC-1. Format: cell-based. The following applies: human, PANC-1 cells (pancreas epithelioid carcinoma), vs 0.1% DMSO control = 100%, mean ± standard deviation. How it is done:
as §1, §2

Series [7] is described as follows: WST-1 proliferation assay, HT-29. Format: cell-based. The following applies: human, HT-29 cells (colorectal adenocarcinoma), vs 0.1% DMSO control = 100%, mean ± standard deviation. As for the experimental part:
as §1, §2

Series [8] can be described thus: WST-1 proliferation assay, Jurkat. Format: cell-based. The settings on record: human, Jurkat cells (acute T-cell leukemia), vs 0.1% DMSO control = 100%, mean ± standard deviation. How it is done: as §1, §2
Series [9] is described as follows: WST-1 proliferation assay, MOLT-4. Format: cell-based. The following applies: human, MOLT-4 cells (acute lymphoblastic leukemia), vs 0.1% DMSO control = 100%, mean ± standard deviation. As for the experimental part: as §1, §2
The subject of series [10] is mice. On the set-up: method as in PMID 29852368. The settings on record: 200 mg kg^−1 dose; cited from earlier work.

The structures appear in SMILES notation. “Also recorded” adds a separate entry of the source.

On to `OCCN1CCN(CC(O)COc2ccc(Oc3ccc(F)cc3)cc2)CC1` (stereo not shown) [Compound 7, 1-(4-(2-Hydroxyethyl)piperazin-1-yl)-3-(4-(4-fluorophenoxy)phenoxy)propan-2-ol], for which the viability at 48 h, 100 µM in series [1] was determined as 6 ± 2%; in [2], 0%; in series [3] it was 7 ± 7%; in series [4] it was 15 ± 5%; in series [6] it was 55 ± 6%; in series [7], 12 ± 2%. Also, the viability at 48 h, 100 µM in series [8] turned out to be 2%; in series [9] it was 6 ± 5%. The “Overall cytotoxic activity across cell lines (in words)” value in series [5] was “severe toxicity to most of the tested cell lines; also recorded: exhibited stand-alone cytotoxicity”.

As to `OCCN1CCN(CC(O)COc2cc(Cl)c(Cl)cc2Cl)CC1` (stereo not shown) [Compound 8, 1-(4-(2-Hydroxyethyl)piperazin-1-yl)-3-(2,4,5-trichlorophenoxy)propan-2-ol], the viability at 48 h, 100 µM in series [1] is 92 ± 12%; in series [2], 15 ± 10%; in series [3], 41 ± 7%; in [4], 42 ± 5%; in series [6] it was 101 ± 2%; in series [7] it was 33 ± 3%. Also, the results for the viability at 48 h, 100 µM in series [8] and in series [9] were 28 ± 4% and 41 ± 8%, respectively. Further, the “Overall cytotoxic activity across cell lines (in words)” value in series [5] is on record as “severe toxicity to most of the tested cell lines; also recorded: exhibited stand-alone cytotoxicity”.

With `O=C1N=C(N2CCN(CCO)CC2)S/C1=C\c1ccc(-c2ccccc2)cc1` [CLZ-8], the “Survival of mice (in words)” value in [10] was “significantly improved their survival”.

As usually defined, the viability is a read-out of living cells in per cent, often relative to untreated cells.

(Values after publication PMC11324046, “Second-generation piperazine derivatives as promising radiation countermeasures” (RSC Medicinal Chemistry, 2024).)
